Experimental data from US9518046B2 (Calitor Sciences, LLC, priority 2015, dated 2016).

Experiment: Pharmacokinetics after intravenous and oral administration in rats
Format: in vivo
Settings: for CL/F / bioavailability: Rats; for CL/F: iv dosing, dose 1 mg/kg (0.5 for Ex. 1, 10, 11, 35; 0.48 for Ex. 24); for AUC(0-t) / half-life / Vd / bioavailability: rat, plasma; for AUC(0-t) / half-life / Vd: iv, 1 mg/kg; for Vd: read-out: Vss; for bioavailability: oral (p.o.) generally 5 or 10 mg/kg versus iv dosing
Description: The LC/MS/MS system used in the analysis consists of an Agilent 1200 Series vacuum degasser, binary pump, well-plate autosampler, thermostatted column compartment, the Agilent G6430 Triple Quadrupole Mass Spectrometer with an electrosprayionization (ESI) source. Quantitative analysis was carried out using MRM mode. The parameters for MRM transitions are in the Table A.
An Agilent XDB-C18, 2.1×30 mm, 3.5 M column was used for the analysis. 5 L of the samples were injected. Analysis condition: The mobile phase was 0.1% formic acid in water (A) and 0.1% formic acid in methanol (B). The flow rate was 0.4 mL/min. And the gradient of Mobile phase was in the Table B.
Alternatively, an Agilent 6330 series LC/MS/MS spectrometer equipped with G1312A binary pumps, a G1367A autosampler and a G1314C UV detector were used in the analysis. An ESI source was used on the LC/MS/MS spectrometer. The analysis was done in positive ion mode as appropriate and the MRM transition for each analyte was optimized using standard solution. A Capcell MP-C18 100×4.6 mm I.D., […] column (Phenomenex, Torrance, Calif., USA) was used during the analysis. The mobile phase was 5 mM ammonia acetate, 0.1% MeOH in water (A): 5 mM ammonia acetate, 0.1% MeOH in acetonitrile (B) (70:30, v/v). The flow rate was 0.6 mL/min. Column was maintained at ambient temperature. 20 μL of the samples were injected.
The compounds disclosed herein are assessed in pharmacokinetic studies in mice, rats, dogs or monkeys. The compounds are administered as a water solution, 2% HPMC+1% TWEEN®80 in water solution, 5% DMSO+5% solutol in saline, 4% MC suspension or capsule. For the intravenous administration, the animals are generally given at 1 or 2 mg/kg dose. For the oral (p.o.) dosing, mice and rats are generally given 5 or 10 mg/kg dose, and dogs and monkeys are generally given 10 mg/kg dose. The blood samples (0.3 mL) are drawn at 0.25, 0.5, 1.0, 2.0, 3.0, 4.0, 6.0, 8.0, 12 and 24 h time points or 0.083, 0.25, 0.5, 1.0, 2.0, 4.0, 6.0, 8.0 and 24 h time points and centrifuged at 3,000 or 4000 rpm for 2 to 10 min. The plasma solutions are collected, stored at −20° C. or −70° C. until analyzed by LC/MS/MS as described above.

Row | Structure (SMILES) | CL/F | other results
1 | CC[C@H](Nc1ncnc(N)c1-c1ccn(C)n1)c1nc2cccc(Cl)c2c(=O)n1C1CC1 [Ex. 51, (S)-2-(1-((6-amino-5-(1-methyl-1H-pyrazol-3-yl)pyrimidin-4-yl)amino)propyl)-5-chloro-3-cyclopropylquinazolin-4(3H)-one] | 27.3 mL/min/kg | –
2 | CC[C@H](Nc1ncnc(N)c1-c1nc(C)co1)c1nc2cccc(Cl)c2c(=O)n1C1CC1 [Ex. 52, (S)-2-(1-((6-amino-5-(4-methyloxazol-2-yl)pyrimidin-4-yl)amino)propyl)-5-chloro-3-cyclopropylquinazolin-4(3H)-one] | 85.7 mL/min/kg | –
3 | CC(C)c1noc(-c2c(N)ncnc2N[C@@H](C)c2nc3cccc(Cl)c3c(=O)n2C2CC2)n1 [Ex. 57, (S)-2-(1-((6-amino-5-(3-isopropyl-1,2,4-oxadiazol-5-yl)pyrimidin-4-yl)amino)-ethyl)-5-chloro-3-cyclopropylquinazolin-4(3H)-one] | 83 mL/min/kg | –
4 | CC[C@H](Nc1ncnc(N)c1-c1nc(C(N)=O)n(C)n1)c1nc2cccc(Cl)c2c(=O)n1C1CC1 [Ex. 58, (S)-3-(4-amino-6-((1-(5-chloro-3-cyclopropyl-4-oxo-3,4-dihydroquinazolin-2-yl)propyl)amino)pyrimidin-5-yl)-1-methyl-1H-1,2,4-triazole-5-carboxamide] | 26.2 mL/min/kg | –
5 | CCc1nc(-c2c(N)ncnc2N[C@@H](C)c2nc3cccc(Cl)c3c(=O)n2C2CC2)no1 [Ex. 61, (S)-2-(1-((6-amino-5-(5-ethyl-1,2,4-oxadiazol-3-yl)pyrimidin-4-yl)amino)ethyl)-5-chloro-3-cyclopropylquinazolin-4(3H)-one] | 97.5 mL/min/kg | –
6 | CC[C@H](Nc1ncnc(N)c1-c1nnc(C)o1)c1nc2cccc(-c3cnn(C)c3)c2c(=O)n1-c1ccccc1 [Ex. 73, (S)-2-(1-((6-amino-5-(5-methyl-1,3,4-oxadiazol-2-yl)pyrimidin-4-yl)amino)propyl)-5-(1-methyl-1H-pyrazol-4-yl)-3-phenylquinazolin-4(3H)-one] | 20.7 mL/min/kg | AUC(0-t): 807 ng·h/mL; half-life: 0.85 h; Vd: 1.44 L/kg; bioavailability: 104%

Now from value to compound, other results behind:

Row | CL/F | Structure (SMILES) | other results
7 | 38.2 mL/min/kg | CC[C@H](Nc1ncnc(N)c1-c1ncn(C)n1)c1nc2cccc(Cl)c2c(=O)n1C1CC1 [Ex. 53, (S)-2-(1-((6-amino-5-(1-methyl-1H-1,2,4-triazol-3-yl)pyrimidin-4-yl)amino)-propyl)-5-chloro-3-cyclopropylquinazolin-4(3H)-one] | –
8 | 74.7 mL/min/kg | CCc1noc(-c2c(N)ncnc2N[C@@H](CC)c2nc3cccc(Cl)c3c(=O)n2C2CC2)n1 [Ex. 56, (S)-2-(1-((6-amino-5-(3-ethyl-1,2,4-oxadiazol-5-yl)pyrimidin-4-yl)amino)-propyl)-5-chloro-3-cyclopropylquinazolin-4(3H)-one] | –
9 | 73.7 mL/min/kg | CC(C)c1nc(-c2c(N)ncnc2N[C@@H](C)c2nc3cccc(Cl)c3c(=O)n2C2CC2)no1 [Ex. 59, (S)-2-(1-((6-amino-5-(5-isopropyl-1,2,4-oxadiazol-3-yl)pyrimidin-4-yl)amino)ethyl)-5-chloro-3-cyclopropylquinazolin-4(3H)-one] | –
10 | 71.8 mL/min/kg | CC[C@H](Nc1ncnc(N)c1-c1nc(C)no1)c1nc2cccc(Cl)c2c(=O)n1[C@@H]1C[C@@H]1F [Ex. 62] | –
11 | 14.3 mL/min/kg | CC[C@H](Nc1ncnc(N)c1-c1nc(C)no1)c1nc2cccc(-c3cnn(C)c3)c2c(=O)n1-c1ccccc1 [Ex. 74, (S)-2-(1-((6-amino-5-(3-methyl-1,2,4-oxadiazol-5-yl)pyrimidin-4-yl)amino)propyl)-5-(1-methyl-1H-pyrazol-4-yl)-3-phenylquinazolin-4(3H)-one] | AUC(0-t): 1120 ng·h/mL; half-life: 1.56 h; Vd: 1.83 L/kg; bioavailability: 105%
